Laboratory results published in US8618055B2, “Prominin-1 peptide fragments and uses thereof” (Children's Medical Center Corporation, priority 2008, dated 2013).
“Also recorded” adds a separate entry of the source.

What was measured:
endothelial cells [1] = assay: I125-VEGF binding to endothelial cells in presence of peptide; format: cell-based; details: for VEGF binding to cells (endothelial cells) with #237 fragments: 100 μg/ml of each peptide
Protocol: (§1) 10000 cells were incubated in binding buffer containing 20 mM Hepes, 0.1% BSA and I125-VEGF (12 ng/ml) for 3 h on ice.
(§2) In order to characterize the effect of the peptides on VEGF binding to endothelial and melanoma cells, the cells were incubated with various peptides (720 μg/ml) in the presence of […] (12 ng/ml) (FIG. 3). Peptide #237 increased VEGF binding to endothelial as well to melanoma cells. 10000 cells were incubated in binding buffer containing 20 mM Hepes, 0.1% BSA and I^125-VEGF (12 ng/ml) for 3 h on ice. Following 3 washings, the radioactive levels were determined by gamma counter. An increase of more than 25 times in I^125-VEGF binding was observed when peptide #237 was added to both kinds of cells. All other peptides had no effect on VEGF binding.
(§3) To characterize which are the essential amino acids within the #237 peptide that are crucial to accelerate VEGF binding to the cells, three shorter peptides were designed as presented at Table 2. The cells were treated with the smaller peptides in the same way as described in FIG. 3. 10000 cells were incubated in binding buffer containing 20 mM Hepes, 0.1% BSA, I^125-VEGF (12 ng/ml) and 100 μg/ml of each peptide, for 3 h on ice. Following 3 washings with binding buffer, the radioactive levels were determined using a gamma counter.
The inventors also investigated which amino acid residues in peptide #237 are important for the various angiogenic and VEGF related binding activity described herein. To achieve this, the inventors singly changed each of the 12 amino acid residues in peptide #237 to alanine and performed experiments examining the effect of the alanine substitution at various positions on endothelial cell binding to VEGF. A total of 12 alanine substituted peptides were made and tested: Ala-1, Ala-2, Ala-3, Ala-4, Ala-5, Ala-6, Ala-7, Ala-8, Ala-9, Ala-10, Ala-11, Ala-12, (SEQ. ID. NOS. 39-50) wherein the number indicate the position where the alanine substitution occurred. (Note that the amino acid at position 12 of peptide #237 was changed to glycine in Ala-12). In addition, a “flip #237” peptide having the sequence AAVVTTTQRQVRD (SEQ. ID. NO. 53) was also made and studied.

B16-F10 melanoma cells = assay: I125-VEGF binding to melanoma cells in presence of peptide; format: cell-based; details: I125-VEGF 12 ng/ml, 3 h on ice
Protocol: as §1, §2, §3

nude mouse ear wound = assay: Ear wound neovascularization model; format: in vivo; details: matrigel containing #237 (180 μg) daily for 5 days, 2.25 mm punch, vs plain matrigel
Protocol: Microvascular in-growth into damaged tissue is an essential component of the normal healing process. In fact, wound therapy is often aimed at promoting neovascularization. The model consists of wounding the dorsal aspect of the ear of a nude mouse. A circular punch was used to create a standardized wound on a nude mouse ear. Constant diameter of wound is given by the size of the punch (2.25 mm), and the ears were treated daily with plain matrigel (FIG. 8A) or matrigel containing peptide #237 (180 μg) (FIG. 8B) for 5 days. […] In order to evaluate the wound neovascularization, the mice were inoculated by dextran-FITC which specifically labeled the endothelial cells, immediately after anesthetizing them.

mouse corneas = assay: Corneal micropocket assay with VEGF pellet; format: in vivo; details: pellet 160 ng VEGF 165 + 1.3 ug #237 vs VEGF pellet alone, 5 days
Protocol: Vigorous vessel in-growth from the limbus at 5 days was recorded as a positive response.
In order to evaluate the modulating effect of peptide #237 on the angiogenesis process, a corneal micropocket assay was performed. Two kinds of pellets were created, both containing 160 ng carrier-free recombinant human VEGF 165 (R&D Systems, Minneapolis, Minn.), one of which contains 1.3 ug of #237 peptide. The pellets were implanted into micropockets created in the cornea of two groups of anesthetized mice (n=4). Through the use of standardized slow-release pellets, a predictable angiogenic response is generated over the course of 5 days and then quantified. The area of neovascularization was calculated as vessel area, which is calculated as the product of vessel length measured from the limbus and clock hours around the cornea, using the following equation: vessel area (mm^2)=[clock hours×vessel length (mm)×0.2 mm]. […] The in vivo experiment confirms that the peptide stimulates cell proliferation, and is therefore a good candidate to induce angiogenesis.

ischemic hind limb = assay: Mouse hind limb ischemia model (femoral artery ligation, laser Doppler); format: in vivo
Protocol: Mice were ligated in one of their femoral arteries (the right limb) to simulate hind limb ischemia. The blood flow in mice was analyzed by machine for each mouse before and immediately after the procedure to evaluate if the femoral was ligated properly. Blood flow was compared with the non-operated leg by a laser Doppler imager. […] The ischemic limb is seen as the limb on left side in the laser Doppler images.
In FIG. 12, the white areas indicate normal perfusion with normal blood circulation and black areas indicate no blood flow in the ischemic left hind limb. […] Dark shaded areas within the white areas located at the distal ends of the limbs indicate extremely good blood flow.
The blood flow of the ischemic hind limb is expressed as the ratio between the perfusion of the ischemic limb and the uninjured limb in FIG. 13.

endothelial cells [2] = assay: Matrigel assay, endothelial cell migration in vivo (FACS); set-up: species or system C57bl mice; details: for endothelial cells among matrigel liberated cells (FACS, CD31): Matrigel s.c. with 500 ng VEGF, with or without 180 μg #237, day 6
Protocol: On day 6, animals were sacrificed and fluorescence-activated cell sorting (FACS) analysis was used for determination of the matrigel liberated cells. In order to distinguish the endothelial cells from hematopoietic cells, the cells were incubated with two antibodies CD31-PE and CD45-APC which are specific to endothelial cells and hematopoietic cells respectively.

[3] = test system: Primary cortical neuronal cells; assay: Neurite outgrowth in primary cortical neuronal cells; format: cell-based; details: 0.25 μg/μL, 2 days, compared to scrambled peptide
Protocol: Primary cortical neuronal cells (2×10^4 per well) were plated on poly-L-lysine coated 24 well dishes and treated with either scrambled #237 or peptide #237 (0.25 μg/μL). Cells were then cultured for 2 days.
Neurite outgrowth was evaluated by counting the number of neurites extended from the same number of cells and at the same area.
Peptide 237 increases neurite outgrowth in terminally differentiated cortical neurons. The number of neurite arborizations in these postmitotic cells was estimated using light microscopy by manually counting the number of projections in a given field containing approximately equivalent number of cells. Quantification of neurite outgrowth was also performed by fluorescent staining with a neuron-specific marker (i.e., neurofilament) followed by automated, computational analysis (data not shown).

mouse ear wound = assay: Mouse ear punch wound healing model, 14 days; format: in vivo; details: MATRIGEL containing #237 daily, day 14, vs MATRIGEL
Protocol: In addition to increasing angiogenesis, peptide #237 also accelerates wound healing. In order to evaluate the effect of the peptide on wound healing, ears of five mice were wounded using a circular punch, which creates a wound measuring 1 mm. The ears of wounded mice were treated daily with either MATRIGEL or MATRIGEL containing #237 peptide for 14 days.

[4] = test system: calvaria critical size defect; assay: Calvaria critical size defect bone repair experiment; format: in vivo, rat; details: local treatment 28 days, 100 μg/mice/5 days, 5-mm defect, vs saline
Protocol: In this study, the inventors examined the ability of peptide #237 to enhance repair of a critical size defect in a rat calvaria critical size defect experiment. Critical size calvarial defects (5-mm diameter) were created in rats and locally treated with saline (control) or peptide #237 for 28 days (100 μg/mice/5 days). After 28 days, analysis of bone regeneration was determined by soft x-ray.

For “Ala-5: peptide #237 with the arginine at position 5 replaced by alanine (DRVQAQTTTVVA)”, the “ability of endothelial cells to bind VEGF, alanine substituted #237 peptides” value (endothelial cells [1]; compared to the original #237) was “increased by more than twice”.

With DRVQRQ [#237A] the “VEGF binding to cells (endothelial cells) with #237 fragments” value (from here on “VEGF binding to cells”) (endothelial cells [1]; I125-VEGF 12 ng/ml, 3 h on ice) was “abolished; also recorded: not crucial to enhance VEGF binding”.

In the case of DRVQRQTTTVVA [Peptide #237], the “increase in I125-VEGF binding to melanoma cells” value (B16-F10 melanoma cells; peptide 720 μg/ml, 10000 cells) is reported as “more than 25 times”, the “neovascularization around the ear wound site” value (nude mouse ear wound) is reported as “significantly increased” and the “increase in vessel density versus control pellet” value (mouse corneas) is reported as 53%. For the same substance, the limb perfusion (ischemic hind limb; intraperitoneal immediately following femoral artery occlusion, within three to six days) was “significantly improves limb perfusion”, the “increase perfusion compared to saline-treated mice” value (ischemic hind limb; ratio ischemic/uninjured limb, on average) was 30-40% and the “endothelial cells relative to VEGF alone” value (endothelial cells [2]; 180 ug #237 added to VEGF in Matrigel, day 6) was “six times more”. The “endothelial cells among matrigel liberated cells (FACS, CD31)” value (endothelial cells [2]) was 0.42%, the neurite outgrowth [3] was “dramatically induces branched and longer neurites” and the wound area (mouse ear wound) was “significantly smaller”. For the same substance, the “increase in I125-VEGF binding to endothelial cells” value (endothelial cells [1]; peptide 720 μg/ml, I125-VEGF 12 ng/ml, 10000 cells, 3 h on ice) was “more than 25 times” and the “bone regeneration (soft x-ray)” value [4] was “completely sealed and covered the aperture”.

With TTTVVA [#237B] the “VEGF binding to melanoma cells with #237 fragments” value (B16-F10 melanoma cells; 100 μg/ml of each peptide) was “better binding” and the “VEGF binding to cells” value (endothelial cells [1]; I125-VEGF 12 ng/ml, 3 h on ice) was “partially increases; also recorded: partial increase”.

For VEGF [reference compound], the “endothelial cells among matrigel liberated cells (FACS, CD31)” value (endothelial cells [2]) was 0.07%.

For VQRQTTTV [#237C], the “VEGF binding to cells” value (endothelial cells [1]; I125-VEGF 12 ng/ml, 3 h on ice) was “abolished; also recorded: essentially eliminated”.
